# EP0863156A1, “Peptides useful as somatostatin antagonists” (American Cyanamid Company, priority 1997, dated 1998)
# Read-outs that look alike come from different tables or passages of the source. Square brackets hold non-standard residues; d marks the D form. Peptide text beside a SMILES is read from it.
# Assays:
# SRIF receptors = molecular target: T1, SRIF receptors (Rattus norvegicus, UniProt P30680); assay: Yeast bioassay for SRIF antagonist activity (zone of growth inhibition of LY364 cells growing in response to SRIF); assay type: cell-based; details: 10 µL of 5 mg/mL on filter disk, S-14 10 nM; for Yeast Assay (mm): Table III, diameter of zone of growth inhibition; for Inhibition Zone (mm): sample type 4th iteration, read after 3 days, compare only within same experiment
# T1 construct: expressed in transfected cells; host or cells: Saccharomyces cerevisiae strain LY364
# Description: Agar plates containing LY364 cells that are growing in the presence of added SRIF are the basis for a sensitive SRIF antagonist assay, whereby zones of growth inhibition result from the addition of SRIF antagonists to the surface of the agar plate (see L.A. Price, et al., Molecular and Cellular Biology, 15, 6188-6195, 1995, incorporated herein by reference).
# In this assay, LY364 cells are grown overnight in 2 mL of synthetic complete(SC) medium (3.4 g/L YNB without amino acids and ammonium sulfate, 10 g/L ammonium sulfate and 1.4 g/L CSM-ura-trp) with glucose (2%) and without uracil and tryptophan. These cells are washed and cultured for 4 to 8 hours in 5 mL of SC medium with lactate (3%) and without uracil and tryptophan, and finally grown overnight in 5 mL of SC medium with galactose (2%) and without uracil and tryptophan. Molten (50° C) SC agar medium with galactose (2%) and without uracil, tryptophan and histidine is adjusted to pH 6.8 with KOH, mixed with 2 x 10^4 cells/mL and SRIF (S-14, 10 nM) and poured into square (20 x 20 cm) petri dishes. Sterile filter disks are placed on the surface of the agar, and saturated with 10 µL of water or DMSO containing 5 mg/mL test peptides. After three days, the plates display a uniform cloudy background of […] cells growing in response to the added SRIF. […] This zone is quantified by measuring its diameter (mm), which varies according to the potency of the SRIF antagonist. Those peptides or mixtures of peptides displaying the largest zones of inhibition are further characterized.
# Values are compared among samples in the same experiment, as the degree of yeast growth varies somewhat from assay to assay. For the first five sample types, in which progressively less complex mixtures of peptides are found, this assay is the primary determining factor in choosing which samples form the basis of subsequent syntheses.
# Plates are read after 3 days. Samples shown in Table I in bold type are chosen for further synthesis. In Table I, all amino acids are D-amino acids and dashes represent undefined amino acid residues.
# SSTR2 = SSTR2 (Rattus norvegicus, UniProt P30680); assay: cAMP accumulation in forskolin-stimulated GH4C1/SSTR2 cells (SPA radioimmunoassay); assay type: cell-based; set-up: expressed in transfected cells; host or cells: GH4C1 rat pituitary tumor cells; details: for cAMP Assay Intrinsic activity / Emax: percent reversal of SSTR2 activation by SRIF or MK678, 0% = forskolin plus agonist, 100% = forskolin alone; for Emax: GH4-C1, read-out: cAMP Assay Intrinsic activity
# Description: This is the basis of a common assay for SRIF agonists and antagonists, whereby SRIF agonists reduce artificially stimulated cAMP levels, and SRIF antagonists reverse the effect of SRIF. […] This increases the response to SRIF and provides a greater dynamic range for the measurement of SRIF antagonist activity.
# Stimulation of cells. GH4C1/SSTR2 cells, grown in DMEM with 10% bovine serum, are released from a tissue culture dish by incubation for several minutes at 37° C with PBS containing 0.5 mM EDTA. Cells are washed in induction buffer (PBS containing 100 µM IBMX (an inhibitor of cAMP breakdown) and 2 mM CaCl2) at room temperature, and resuspended at 2 x 10^6/mL in induction buffer. Into each well of a 96-well tray are added 50 µL of a 2 X concentration of stimulants in induction buffer. […] To initiate stimulation of the cells, 50 µL (100,000) cells are added to each well, mixed by shaking 10 seconds on a plate shaker and placed at 37° C for 15 minutes. Stimulation is arrested and cells are lysed by adding 15 µL 0.33 N HCI to each well and incubating the plate for 30 minutes at 37° C. Samples are neutralized by addition of 15 µL 0.25 N NaOH/50 mM Hepes pH 7.4. Baseline cAMP levels are determined in samples with no added forskolin or SRIF, and each treatment is performed in triplicate.
# cAMP assay. To measure accumulated cAMP in the samples, a radioimmunoassay is employed. The scintillation proximity assay (SPA, Amersham, Arlington Heights, IL) allows the rapid measurement of ^125I cAMP bound to a specific antibody without separating bound radioligand from free radioligand. Each of the following reagents (15 µL) are added per well in a 96-well tray: supernatants from the cell stimulation; ^125I cAMP; SPA beads conjugated to monkey anti-rabbit IgG antibodies; and rabbit anti-cAMP antibodies. For the standard curve, known amounts of cAMP (0.2 - 12.8 pmol) are added in place of cell supernatants. The 96-well tray is sealed, shaken at room temperature overnight and measured for bound radioligand in a MicroBeta liquid scintillation counter (Wallac, Gaithersburg. MD).
# The intrinsic activity of an SRIF antagonist is the percent reversal of the SSTR2 activation by SRIF or MK678, wherein 0% is defined by cAMP levels in samples treated with forskolin plus SRIF or MK678 and 100% is the cAMP level measured after treatment with forskolin alone. Therefore, increased intrinsic activity of a test compound indicates increased antagonist activity of said test compound.
# An inverse agonist is a compound that is not only a pure antagonist (i.e. lacking agonist activity), but also blocks the constitutive activity of an unoccupied receptor. One indication of inverse agonist activity is the ability of a SRIF antagonist to increase cAMP levels in the absence of added SRIF.
# [1] = tested on: serum growth hormone (GH) levels; assay: In vivo serum growth hormone levels in anaesthetized rats (radioimmunoassay); set-up: species or system Male Sprague-Dawley rats; details: GRF 1 µg alone at 30 min
# Description: Evaluation in anaesthetized rats. Male Sprague-Dawley rats are anaesthetized with Sagatal and fitted so as to allow efficient intravenous treatment with control and test compounds as well as frequent blood sampling. Blood samples are tested for growth hormone (GH) levels by radioimmunoassay. Thirty minutes after the initiation of blood sampling, rats are given 5 µg, 25 µg or 50 µg of peptide 1.
# Peptide 1 is tested in combination with growth hormone releasing factor (GRF), to investigate whether said peptide may be mimicking the action of GRF. Anaesthetized rats are given GRF (1 µg) alone and in combination with peptide 1 (50 µg). […]
# [2] = dose response of SRIF agonist upon cAMP levels in forskolin stimulated GH4C1/SSTR2 cells, agonist alone
# T1 sequence (P30680 whole entry): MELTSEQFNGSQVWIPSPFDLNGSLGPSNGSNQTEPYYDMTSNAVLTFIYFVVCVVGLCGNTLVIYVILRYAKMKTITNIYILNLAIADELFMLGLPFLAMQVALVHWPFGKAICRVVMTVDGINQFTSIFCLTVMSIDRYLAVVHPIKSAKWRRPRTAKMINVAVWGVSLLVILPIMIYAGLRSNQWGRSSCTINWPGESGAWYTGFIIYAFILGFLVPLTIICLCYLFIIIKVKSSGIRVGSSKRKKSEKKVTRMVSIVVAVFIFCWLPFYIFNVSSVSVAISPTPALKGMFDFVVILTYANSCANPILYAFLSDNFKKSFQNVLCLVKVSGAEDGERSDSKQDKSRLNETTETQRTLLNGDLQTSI
# Sequence of SSTR2 (P30680 whole entry): as above
Compound,Yeast Assay (mm) (SRIF receptors),cAMP Assay Intrinsic activity (SSTR2; test peptide 2 µM) [%],Inhibition Zone (mm) (SRIF receptors),also measured
h-F-i-r-w-f [Peptide 14],16 mm,29.6,–,–
w-y-i-r-w-f [Peptide 23],none,5.64,–,–
CC[C@@H](C)[C@@H](NC(=O)[C@@H](Cc1ccccc1)NC(=O)[C@@H](Cc1c[nH]cn1)NC(C)=O)C(=O)N[C@H](CCCNC(=N)N)C(=O)N[C@H](Cc1c[nH]c2ccccc12)C(=O)N[C@H](Cc1c[nH]c2ccccc12)C(N)=O [Seq Id No. 25] (Ac-[dH][dF][dI][dR][dW][dW]-NH2),–,–,16,–
h-f-I-r-w-f [Peptide 15],9 mm,9.71,–,–
h-y-i-r-w-f [Peptide 20],18 mm,56.5,–,–
h-i-r-w-f [Peptide 8],none,2.76,–,–
h-w-i-r-w-f [Peptide 21],18 mm,54.7,–,–
h-f-r-w-f [Peptide 9],9 mm,6.36,–,–
CC[C@@H](C)[C@@H](NC(=O)[C@@H](Cc1ccccc1)NC(=O)[C@@H](Cc1c[nH]cn1)NC(C)=O)C(=O)N[C@H](CCCNC(=N)N)C(=O)N[C@H](Cc1c[nH]c2ccccc12)C(=O)NCC(N)=O [His Phe Ile Arg Trp Gly] (Ac-[dH][dF][dI][dR][dW]G-NH2),–,–,13,–
CC[C@@H](C)[C@@H](NC(=O)[C@@H](Cc1ccccc1)NC(=O)[C@@H](Cc1c[nH]cn1)NC(C)=O)C(=O)N[C@H](CCCNC(=N)N)C(=O)N[C@H](Cc1c[nH]c2ccccc12)C(=O)N[C@H](C)C(N)=O [Seq Id No. 22] (Ac-[dH][dF][dI][dR][dW][dA]-NH2),–,–,15,–
GRF: growth hormone releasing factor (GRF) [reference compound],–,–,–,SGH ([1]; time 0 min (before dosing)): 11.2 ng/mL; SGH ([1]; time 15 min (before dosing)): 11.3 ng/mL; SGH ([1]; time 30 min (time of dose)): 8.4 ng/mL; SGH ([1]; time 35 min): 67.1 ng/mL; SGH ([1]; time 40 min): 103.5 ng/mL; SGH ([1]; time 45 min): 53.1 ng/mL
"CC(C)[C@@H]1NC(=O)[C@H](CCCCN)NC(=O)[C@@H](Cc2c[nH]c3ccccc23)NC(=O)[C@H](Cc2ccc(O)cc2)NC(=O)[C@H](C)N(C)C(=O)[C@H](Cc2ccccc2)NC1=O [MK678, reference compound]",–,–,–,"cAMP (SSTR2; Forskolin 1.25 µM + MK 678 10 nM, no Peptide 1 (forskolin alone 3.04; baseline 0.36)): 0.91 pM per 4 x 10^4 cells; EC50 (SSTR2; [2]): 0.143 nM; Maximum (SSTR2; [2]): 6.431; Minimum (SSTR2; [2]): 2.673"
CC[C@@H](C)[C@@H](NC(=O)[C@@H](Cc1ccccc1)NC(=O)[C@@H](Cc1c[nH]cn1)NC(C)=O)C(=O)N[C@H](CCCNC(=N)N)C(=O)N[C@H](Cc1c[nH]c2ccccc12)C(=O)N[C@H](CC(C)C)C(N)=O [Seq Id No. 18] (Ac-[dH][dF][dI][dR][dW][dL]-NH2),–,–,15,–
CC[C@@H](C)[C@@H](NC(=O)[C@@H](Cc1ccccc1)NC(=O)[C@@H](Cc1c[nH]cn1)NC(C)=O)C(=O)N[C@H](CCCNC(=N)N)C(=O)N[C@H](Cc1c[nH]c2ccccc12)C(=O)N[C@H](CC(N)=O)C(N)=O [Seq Id No. 23] (Ac-[dH][dF][dI][dR][dW][dN]-NH2),–,–,15,–
"CC[C@@H](C)[C@@H](NC(=O)[C@@H](CCCNC(=N)N)NC(=O)[C@@H](Cc1ccccc1)NC(=O)[C@@H](Cc1c[nH]cn1)NC(C)=O)C(=O)N[C@H](Cc1c[nH]c2ccccc12)C(=O)N[C@H](Cc1ccccc1)C(N)=O [Peptide 31, h-f-r-i-w-f] (Ac-[dH][dF][dR][dI][dW][dF]-NH2; N-terminus and C-terminus assumed)",–,–,–,Emax (SSTR2; test peptide 100 µM): 13%
h-f-i-r-w [Peptide 12],16 mm,29.1,–,–
"CC[C@@H](C)[C@@H](NC(=O)[C@@H](Cc1ccccc1)NC(=O)[C@@H](Cc1c[nH]cn1)NC(C)=O)C(=O)N[C@H](CCCNC(=N)N)C(=O)NCC(=O)N[C@H](Cc1ccccc1)C(N)=O [Peptide 26, h-f-i-r-g-f] (Ac-[dH][dF][dI][dR]G[dF]-NH2)",–,–,–,Emax (SSTR2; test peptide 2 µM): 4.51%
CC[C@@H](C)[C@@H](NC(=O)[C@@H](Cc1ccccc1)NC(=O)[C@@H](Cc1c[nH]cn1)NC(C)=O)C(=O)N[C@H](CCCNC(=N)N)C(=O)N[C@H](Cc1c[nH]c2ccccc12)C(=O)N[C@H](Cc1ccc(O)cc1)C(N)=O [Seq Id No. 20] (Ac-[dH][dF][dI][dR][dW][dY]-NH2),–,–,16,–
h-f-i-a-w-f [Peptide 5],10 mm,44.1,–,–
"CC[C@@H](C)[C@@H](NC(=O)[C@@H](CCCNC(=N)N)NC(=O)[C@@H](Cc1c[nH]c2ccccc12)NC(=O)[C@@H](Cc1ccccc1)NC(=O)[C@@H](Cc1c[nH]cn1)NC(C)=O)C(=O)N[C@H](Cc1ccccc1)C(N)=O [Peptide 30, h-f-w-r-i-f] (Ac-[dH][dF][dW][dR][dI][dF]-NH2; N-terminus and C-terminus assumed)",–,–,–,Emax (SSTR2; test peptide 100 µM): 12.9%
CC[C@@H](C)[C@@H](NC(=O)[C@@H](Cc1ccccc1)NC(=O)[C@@H](Cc1c[nH]cn1)NC(C)=O)C(=O)N[C@H](CCCNC(=N)N)C(=O)N[C@H](Cc1c[nH]c2ccccc12)C(=O)N[C@H](CCC(N)=O)C(N)=O [Seq Id No. 26] (Ac-[dH][dF][dI][dR][dW][dQ]-NH2),–,–,16,–
"CC[C@@H](C)[C@@H](NC(=O)[C@@H](Cc1c[nH]c2ccccc12)NC(=O)[C@@H](Cc1c[nH]cn1)NC(C)=O)C(=O)N[C@H](CCCNC(=N)N)C(=O)N[C@H](Cc1ccccc1)C(=O)N[C@H](Cc1ccccc1)C(N)=O [Peptide 29, h-w-i-r-f-f] (Ac-[dH][dW][dI][dR][dF][dF]-NH2; N-terminus and C-terminus assumed)",–,–,–,Emax (SSTR2; test peptide 100 µM): 21.3%
CC[C@@H](C)[C@@H](NC(=O)[C@@H](Cc1ccccc1)NC(=O)[C@@H](Cc1c[nH]cn1)NC(C)=O)C(=O)N[C@H](CCCNC(=N)N)C(=O)N[C@H](Cc1c[nH]c2ccccc12)C(=O)N[C@@H](C(N)=O)[C@H](C)O [Seq Id No. 19] (Ac-[dH][dF][dI][dR][dW][dT]-NH2),–,–,14,–
"CC[C@@H](C)[C@H]1NC(=O)[C@@H](Cc2ccccc2)NC(=O)[C@@H](Cc2c[nH]cn2)NC(=O)[C@@H](Cc2ccccc2)NC(=O)[C@@H](Cc2c[nH]c3ccccc23)NC(=O)[C@@H](CCCNC(=N)N)NC1=O [Peptide 35, h-f-i-r-w-f] (cyclo([dH][dF][dI][dR][dW][dF]))",–,–,–,Emax (SSTR2; test peptide 100 µM): 122%
CC[C@@H](C)[C@@H](NC(=O)[C@@H](Cc1c[nH]c2ccccc12)NC(=O)[C@@H](CCCNC(=N)N)NC(=O)[C@H](NC(=O)[C@@H](Cc1ccccc1)NC(=O)[C@@H](Cc1c[nH]cn1)NC(C)=O)[C@H](C)CC)C(N)=O [Seq Id No. 21] (Ac-[dH][dF][dI][dR][dW][dI]-NH2),–,–,16,–
"CC[C@@H](C)[C@@H](NC(C)=O)C(=O)N[C@H](CCCNC(=N)N)C(=O)N[C@H](Cc1c[nH]c2ccccc12)C(=O)N[C@H](Cc1ccccc1)C(=O)N[C@H](Cc1c[nH]cn1)C(=O)N[C@H](Cc1ccccc1)C(N)=O [Peptide 33, i-r-w-f-h-f] (Ac-[dI][dR][dW][dF][dH][dF]-NH2; N-terminus and C-terminus assumed)",–,–,–,Emax (SSTR2; test peptide 100 µM): 11.5%
CC[C@@H](C)[C@@H](NC(=O)[C@@H](Cc1ccccc1)NC(=O)[C@@H](Cc1c[nH]cn1)NC(C)=O)C(=O)N[C@H](CCCNC(=N)N)C(=O)N[C@H](Cc1c[nH]c2ccccc12)C(=O)N[C@H](CCSC)C(N)=O [Seq Id No. 24] (Ac-[dH][dF][dI][dR][dW][dM]-NH2),–,–,18,–
